Experimental data published in patent US20040162337A1, “Chemical compounds having therapeutic activities in treating cancer” (priority 2003, published 2004).
“Also recorded” adds a separate entry of the source.

How the values were obtained:
KB-3-1 cells [1] = experiment: Combination Index (CI-isobologram) of APC and doxorubicin, KB-3-1; type: cell-based, human
Excerpt: (§1) In this experiment, the CI-isobologram by Chou and Talalay was used to determine the Combination Index (CI) of APC and doxorubicin. In order to understand the synergistic effect of APC with a conventional cancer drug, a number of combinations of drug concentrations were used in the combination studies. A mutually non-exclusive equation was used to determine the CIs, and the equation is illustrated and explained in the Appendix section below. CI>1, CI=1, and CI<1 indicate antagonism, additive effect, or synergism, respectively. The explanation of the determination of combination indices (CI) is provided in the Appendix section towards the end of the description.
(§2) The Chou and Talalay (Chou T C; Talay P. Adv Enzyme Regul 1984 22:27-55) combination index CI-isobologram equation for two-drug combination is: [formula]
(§3) Firstly, the Din (Median Dose or LD50) and m of each treatment was determined according to the Median-Effect Plot. […] Combination Indices (CI) were calculated at various fractional kill (fa).
(§4) The CI-isobologram by Chou and Talalay was used to determine the Combination Indices (CI) of APC and doxorubicin. […] The mutually non-exclusive equations were used to determine the CIs and each CI was calculated from the mean affected fraction at each drug ratio concentration.

KB-3-1 cells [2] = experiment: Apoptosis study by DNA ladder, KB-3-1; type: cell-based, human; settings: 24 hours
Method: In this experiment, three groups of KB-3-1 cells were treated for 24 hours at different concentrations (17.26 μM, 34.52 μM & 172.56 μM) of APC. A control group of KB-3-1 cells was treated as negative control for the same amount of time. Approximately 5×10^6 cells from each of the four groups were washed in phosphate buffered saline (PBS) and their genomic DNA was extracted using Apoptotic DNA Ladder Kit-Best. Nr. 1 835 246 (Roche) according to the manufacturer's manual. The extracted DNA was analyzed by electrophoresis in 2% agarose gel containing 0.1% ethidium bromide in tris galacial acetic acid (TAE) buffer for 30 minutes at 99v. DNA bands of the gel were observed and recorded by Multi-Imager (Bio-Rad, California, USA).
(§5) This experiment was a continuation of Experiment 7. Apoptotic studies by DNA ladder was carried out for 24 hours with drug treatment at different concentrations (17.26 μM, 34.52 μM & 172.56 μM) of APC. A total of eight groups of cells were used. 5×10^6 cells were washed in PBS. Their genomic DNA was extracted using Apoptotic DNA Ladder Kit-Best. Nr. 1 835 246 (Roche) according to Manufacturer's manual. DNA was analyzed by electrophoresis in 2% agarose gel containing 0.1% ethidium bromide in TAE buffer (99v, 30 min). DNA bands were observed and recorded by Multi-Imager (Bio-Rad, California, USA).

MDR KB-V1 cells [3] = experiment: Combination Index (CI-isobologram) of APC and doxorubicin, KB-V1; type: cell-based, human; settings: APC 2.0219 μM to 129.3996 μM with doxorubicin, particularly fractional kill greater than 50%
Excerpt: as §1, §2, §3, §4

β-Actin = experiment: Reverse transcription-PCR of β-Actin (internal standard); type: cell-based, human; settings: KB-3-1 and KB-V1 cells, 1× and 2× dose of LD50
Method: (§6) 1 μg of total RNA isolated from cells using High Pure™ RNA Isolation Kits (Roche) was incubated with 100 ng random primers (Gibco BRL) and DEPC-treated water (total volume 10 μl) for 10 min at 65° C., then for 5 min on ice. Reverse transcription mixture contained 4 μl of 5× reaction buffer (50 mM Tris-HCl, 100 mM NaCl, 1 mM EDTA, 10 mM DTE, 0.05% polydocanol v/v, 50% glycerol v/v, pH 8.4), 2 μl 10 mM dNTP, 2 μl 100 mM dithiothreitol and 1 μl 50 units/μl Expand™ Reverse Transcriptase (Roche). The reaction lasted for 1.5 hours at 42° C. PCR amplifications were carried out using Expand™ Long Template PCR System (Roche). The primers used were cDNA sequences of p-glycoprotein (P-gp) SEQ ID NO. 1 (sense strand) and SEQ ID NO. 2 (anti-sense strand); cDNA sequences of β-actin SEQ ID NO. 3 (sense strand) and SEQ ID NO. 4 (anti-sense strand). […] of [α-^32P]dATP was added to 25 μl amplification reaction mix. The PCR was performed in a Gene Cycler™ (Bio-Rad) for 27 cycles, consisting of 1 min at 94° C., 1 min at 57° C. and 1 min at 72° C. The samples were heated for 5 min at 94° C. before the first cycle, and the extension time was lengthened to 10 min during the last cycle. PCR products resulted therefrom were size-fractionated on 10% polyacrylamide gel. Autoradiography was carried out with BioMax film (Kodak). Drug-sensitive KB-3-1 was used as control experiments. […]

MDR KB-V1 cells [4] = experiment: Doxorubicin accumulation assay (flow cytometry), KB-V1; type: cell-based, human
Method: (§7) Data was collected with CellQuest Software and analysed with ModFitLT V2.0. Mean fluorescence intensities of 1×10^4 drug-treated cells were quantified and compared with the APC untreated cells. […] A negative control test was also performed.

P-glycoprotein (P-gp) = experiment: Western blotting of P-gp; type: cell-based, human; settings: KB-3-1 and KB-V1 cells, 1× and 2× dose of LD50
Method: (§8) For protein analysis of P-gp and actin, cells were lysed in ice-cold lysis buffer (1% sodium deoxycholate, 0.1% SDS, 1% Triton X-100, 2 mM phenylmethylsulphonyl fluoride, 1% aprotinin). Total lysates were subjected to SDS/PAGE and electrotransferred to nitrocellulose membranes (Bio-Rad). Membranes were then incubated with anti-P-gp or anti-β-actin antibody (Calbiochem) in blocking buffer (10 mM Tris pH7.5, 100 mM NaCl, 0.1% Tween 20, 5% non-fat dry milk) for 1 hour at room temperature before incubation with horseradish-peroxidase-conjugated anti-(rabbit IgG) or anti-(mouse IgG) antibody (Gibco BRL) for 1 hour at room temperature. Immunobinding was detected by the ECL method (Amersham). β-actin polyclonal antibody (Oncogene Science, Uniondale, N.Y., USA) was used as internal standard. Drug-sensitive KB-3-1 was used as control experiments.

KB-3-1 cells [5] = experiment: Doxorubicin accumulation assay (flow cytometry), KB-3-1; type: cell-based, human; settings: pre-treatment, then 2 μM doxorubicin 30 min
Method: as §7

KB-V1 cells = experiment: Apoptosis study by DNA ladder, KB-V1; type: cell-based, human; settings: 24 hours
Method: as §5

MDR1 mRNA = experiment: Reverse transcription-PCR of MDR1; type: cell-based, human; settings: KB-3-1 and KB-V1 cells, 1× and 2× dose of LD50
Method: as §6

actin = experiment: Western blotting of actin; type: cell-based, human; settings: KB-3-1 and KB-V1 cells, 1× and 2× dose of LD50
Method: as §8

MDR KB-V1 cells [6] = experiment: Sulfo-Rhodamine B (SRB) cytotoxicity assay, KB-V1; type: cell-based, human; settings: 3-day dose-response
Method: In the following experiments, tests were conducted using the human cancer cell lines KB-3-1 and KB-V1. The MDR cancer cells KB-V1 were selected from drug sensitive KB-3-1 cells treated by vinblastine. The cell lines (American Type Culture Collection, MD, USA) were routinely grown in MEM (Gibco, MD, USA) containing 10% fetal bovine serum (FBS) and 1% antibiotic solution (Gibco, MD, USA), and 300 ng/ml of vinblastine for maintenance of drug resistance for KB-V1 cells. Cultures of the cells were maintained in a humidified 5% CO2 incubator.
The color intensity of SRB, positively correlated to number of cell, was estimated by correlating to OD at 515 nm. The concentration of DMSO and ethanol in the drug solvent of APC was 20 wt % and 80 wt % respectively. The concentration of DMSO in each culture sample was ≦0.1%.

[7] = system: human carcinoma KB-3-1 cancer cell line; experiment: Sulfo-Rhodamine B (SRB) cytotoxicity assay, KB-3-1; type: cell-based; settings: drug-sensitive KB-3-1 cells, 72 hours, median-effect plot
Method: Assays were carried out in triplicate against human carcinoma KB-3-1 cancer cell line. […] The treatment of KB-3-1 cancer cells lasted for 72 hours and the cell number in each sample was estimated by correlating to optical density (OD) at 515 nm. […] The median dose value was determined from plots of median effects and was equivalent to LD50 (Skehan P.; Storeng R.; Scudiero D.; Monks A.; McMahon J.; Vistica D; Warren J T.; Bokesch H.; Kenney S.; Boyd M R.; J Natl Cancer Inst 1990 82:1107-1112).

Structure (SMILES) | synergism with doxorubicin (KB-3-1 cells [1]; APC 2.0219 μM to 129.3996 μM with doxorubicin) | Combination Index (CI) (KB-3-1 cells [1]; drug combination C (doxorubicin 0.0431 μM, APC 129.3996 μM), all fractional kill) | DNA ladder, state of DNA (KB-3-1 cells [2]; 17.26 μM) | apoptosis (DNA fragmentation, DNA ladder) (KB-3-1 cells [2]; 172.6 μM) | synergism with doxorubicin (MDR KB-V1 cells [3]) | β-Actin mRNA level (β-Actin) | accumulation of doxorubicin in cells (MDR KB-V1 cells [4]; KB-V1 cells, pre-treatment, then 2 μM doxorubicin 30 min) | increase of doxorubicin accumulation (MDR KB-V1 cells [4]; MDR KB-V1 cells, 6 hours incubation at LD50, then 2 μM doxorubicin 30 min) | level of P-gp proteins (P-glycoprotein (P-gp)) | accumulation of doxorubicin in cells (KB-3-1 cells [5]) | DNA ladder, state of DNA (KB-V1 cells; 17.26 μM) | DNA ladder, state of DNA (KB-V1 cells; 172.6 μM) | MDR1 mRNA level (MDR1 mRNA) | level of actin (actin) | LD50 (MDR KB-V1 cells [6]) [µM] | LD50 [7] [µM]
C/C=C(/C)C(=O)OC1C(OC(C)=O)c2c(ccc3ccc(=O)oc23)OC1(C)C (stereo not drawn) [APC, cis-3′-angeloyl-4′-acetoxy-khellactone] | relatively low synergism; also recorded: little or no synergistic interactions | greater than 1 | little affected | significantly more apoptosis | relatively high synergistic interactions | not affected | substantially higher accumulation of doxorubicin | approximately 25% | lower | more doxorubicin accumulated | slightly cut | cut in larger extent | reduced significantly | not affected | 17.2656 ± 8.2441 | 41.9153 ± 2.8016
COc1cccc2c1C(=O)c1c(O)c3c(c(O)c1C2=O)C[C@@](O)(C(=O)CO)C[C@@H]3O[C@H]1C[C@H](N)[C@H](O)[C@H](C)O1 [doxorubicin, reference compound] |  |  |  |  |  |  |  |  |  |  |  |  |  |  | 3.0510 ± 0.2846 | 
